Key:
Assay type in all cases: cell-based
Mouse lung cancer KPL = assay: KPL cells with IN10018 and MRTX1133: microscope and flow cytometry for CRT / Annexin V (Example 6); details: 48 hours, IN10018 10 μM, MRTX1133 15 μM
Method: (§1) Mouse lung cancer KPL (Insitute of Biochemistry and Cell Biology) were cultured with RPMI-1640 (Shanghai Basalmedia, classification number: L210KJ, batch number: F210916)+10% FBS (Gibco, classification number: 10099-141c, batch number: 2158737cp) and passaged twice. When the cells were in good condition, the culture solution was placed in a 24-well plate. After the cells were spread for 24 hours, four groups were set up, wherein the first group was a control group, and the culture medium was added; the second group was IN10018 with a concentration of 10 μM; the third group was MRTX1133 (SuperLan Chemical Co., Ltd., classification number: P2621928-55-8, batch number: 131005) with a concentration of 15 μM; and the fourth group was IN10018 (10 μM) combined with MRTX1133 (15 μM). The drugs were mixed and the mixture was cultured in a 5% CO2 incubator at 37° C. for 48 hours.
(§2) After 48 hours of drug action, the cells were observed under a microscope and photographed, and the photos were kept. Then the cells were collected, subjected to flow analysis, and washed twice with flow buffer (PBS+2% FBS). 0.5 μl of AF647 anti-Calreticulin antibody (abcam, classification number: ab196159, batch number: CR33676773) was added to each well and fully mixed. […] The mixture was cultured at room temperature in the dark for 15 minutes, and then analyzed by flow cytometry.

[1] = tested on: Mouse colon cancer CT26 cells; assay: CT26 cells with IN10018 and Lurbinectedin: microscope and flow cytometry for CRT / Annexin V (Example 2); details: CT26, 48 hours; IN10018 5 μM, Lurbinectedin 0.00142 μM
Method: Mouse colon cancer CT26 cells (Insitute of Biochemistry and Cell Biology) were cultured with RPMI-1640 (Shanghai Basalmedia, classification number: L210KJ, batch number: F210916)+10% FBS (Gibco, classification number: 10099-141c, batch number: 2158737cp) and passaged twice. When the cells were in good condition, the culture solution was placed in a 24-well plate. After the cells were spread for 24 hours, four groups were set up, wherein the first group was a control group, and the culture medium was added; the second group was IN10018 with a concentration of 5 μM; the third group was Lurbinectedin (DC chemicals, classification number: DC12502, batch number: DC1250203) with a concentration of 0.00142 μM; and the fourth group was IN10018 (5 μM) combined with Lurbinectedin (0.00142 μM). The drugs were mixed and the mixture was cultured in a 5% CO2 incubator at 37° C. for 48 hours.
as §2

[2] = tested on: Mouse colon cancer CT26 cells; assay: CT26 cells with IN10018 and MRTX1133: microscope and flow cytometry for CRT / Annexin V (Example 4); details: CT26, 48 hours; IN10018 5 μM, MRTX1133 6 μM
Method: as §1, with “Mouse colon” for “Mouse lung”, “cancer CT26 cells” for “cancer KPL”, “of 5” for “of 10”, “of 6” for “of 15”, “IN10018 (5” for “IN10018 (10”, “MRTX1133 (6” for “MRTX1133 (15”
as §2

| SMILES | cell state under a microscope (Mouse lung cancer KPL) | cell state under a microscope [1] | cell state under a microscope [2] |
| --- | --- | --- | --- |
| COc1cc(C(=O)NC2CCN(C)CC2)c(F)cc1Nc1ncc(C(F)(F)F)c(Oc2cccc3c2C(=O)N(C)C3)n1 [IN10018] | good | good | good |
| C#Cc1c(F)ccc2cc(O)cc(-c3ncc4c(N5CC6CCC(C5)N6)nc(OC[C@@]56CCCN5C[C@H](F)C6)nc4c3F)c12 [MRTX1133] | poor |  | poor |
